The values that follow are results of earlier work, collected in US6777448B2, “Veterinary compositions for the treatment of parasitic diseases” (New Pharma Research Sweden AB, priority 2000, dated 2004).

The conditions of data set [1]: delivered via injection as such.
For data set [2] the following is noted: given orally.
The conditions of data set [3]: bloodstream of animals.

SMILES strings stand for the structures. Read-outs that look alike come from different tables or passages of the source.

For `O=C(Nc1ccc(Oc2ccc(Cl)cc2)c(Cl)c1)c1cc(I)cc(I)c1O` [rafoxanide, 3′-chloro-4′-(4-chlorophenoxy)-3,5-di-iodosalicylanilide], under “in a 1% surface-active agent composition”, the solubility was 0.14%. Moreover, the solubility in water result (water at 25° C.) was “approximately 0.005 % weight/volume”. Also, the irritation on injection entry in data set [1] is given as “irritating”. Moreover, the absorption in data set [2] (non-gastric species) is 10%. Besides, the absorption result in data set [2] (ruminants) is “up to 50%”. Also, in data set [3], the “binding to protein in the blood” value is “bind strongly to protein in the blood” and the “persistence in the bloodstream” value is listed as “persist in the bloodstream of animals”.
